Assay results: US8034811B2, “Hydroxamic acid esters and pharmaceutical use thereof” (Leo Pharma A/S, priority 2003, dated 2011)

Each compound was assayed against T1, human intracellular domain of KDR (VEGF Receptor-2) (Homo sapiens, UniProt P35968) (assay: In vitro KDR kinase assay). Conditions: IC50 as molar concentration; GST-KDR-cyt, substrate phospholipase Cγ, ATP 100 μM, 30 min room temperature, time-resolved fluorometry.
T1 construct: A fusion protein containing the intracellular domain (amino acids 793 to 1357) of the KDR and N-terminally tagged to GST; made in house; host or cells: Sf9 insect cells (baculovirus, pDEST20) for GST-KDR-cyt; E. coli BL21 (pGEX-4T-1) for GST-PLCγ
T1 sequence (P35968 794-1356 limits assumed): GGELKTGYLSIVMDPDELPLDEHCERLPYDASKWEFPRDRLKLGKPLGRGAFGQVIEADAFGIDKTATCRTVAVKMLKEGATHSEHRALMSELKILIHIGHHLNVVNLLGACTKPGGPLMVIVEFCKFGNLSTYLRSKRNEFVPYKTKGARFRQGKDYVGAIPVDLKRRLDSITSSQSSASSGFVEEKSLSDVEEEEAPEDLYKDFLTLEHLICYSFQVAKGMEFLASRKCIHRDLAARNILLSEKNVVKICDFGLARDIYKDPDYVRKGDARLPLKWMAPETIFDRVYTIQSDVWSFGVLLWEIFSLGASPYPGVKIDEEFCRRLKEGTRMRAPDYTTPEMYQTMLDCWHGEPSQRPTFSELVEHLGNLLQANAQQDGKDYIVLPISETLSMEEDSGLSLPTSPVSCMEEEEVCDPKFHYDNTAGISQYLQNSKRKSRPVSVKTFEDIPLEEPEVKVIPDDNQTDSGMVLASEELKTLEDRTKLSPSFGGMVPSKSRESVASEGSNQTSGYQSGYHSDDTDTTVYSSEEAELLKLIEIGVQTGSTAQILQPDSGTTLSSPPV
Format: biochemical
Method: The intracellular domain of the KDR receptor was used in the in vitro KDR assay. This domain contains the tyrosine kinase domain of KDR, and when expressed in Sf9 cells, this domain is constitutively active i.e. the kinase domain is phosphorylated on tyrosine residues.
The compounds to be tested were dissolved in DMSO at 10 mM, stored at −20° C. and protected from light. The maximum concentration of DMSO in the in vitro assay was 0.1%. Control samples received the same concentration of solvent as the samples treated with the test compounds.
For the kinase assays, black 96 wells MaxiSorp microtiter plates were coated by an overnight incubation with 100 μl/well of a 2.5 μg/ml solution of phospholipase Cγ in TBS buffer (40 mM Tris-HCl, pH 7.4, 20 mM Mg(C2H3O2)2, 0.02% NaN3) at 4° C. The plates were washed 3 times with TBS buffer containing 0.1% Tween-20, and the residual binding sites were masked by incubation with 1% BSA in TBS buffer containing 0.1% Tween-20 for 1 h. The plates were washed again and the test compounds were added at final concentrations up to 10 μM, together with ATP at the final concentration of 100 μM in 50 μl TBS buffer/well. Then, 50 μl of the human intracellular domain of KDR (VEGF Receptor-2) finally diluted 3000-3500 fold were added and were incubated for 30 min at room temperature. The plates were washed and 100 μl of the Europium labelled PY-20 anti-phosphotyrosine antibody (Wallac, FIN) were incubated in each well at the concentration of approximately 114 ng/ml for 2 h. Then, the plates were washed and 100 μl of enhancer solution (Wallac, FIN) were incubated in each well for 5 min in the dark. The plates were read in a Victor 1420 multilabel counter, using a Europium protocol for time-resolved fluorometry (Wallac, FIN): excitation 340 nm, emission 615 nm, sample pulse cycle 400 μs. Fluorescence was measured for 400 μs between flashes after a delay time of 400 μs. The background measured in the absence of enzyme was subtracted from all samples. The molar concentrations that inhibited 50% of the maximal enzymatic activity (IC50) were calculated from the dose-response curve, by fitting a straight line between the two concentrations immediately above and below the 50% inhibition point (i.e. by solving the equation y=a+bx).

| SMILES | IC50 |
| --- | --- |
| O=C(NOCC1CCCC1)c1ccccc1NCc1ccncc1 [Compound 113, N-Cyclopentylmethoxy-2-[(pyridin-4-ylmethyl)-amino]-benzamide] | 2.51 nM |
| CCC(CC)CONC(=O)c1ccccc1NCc1ccncc1 [Compound 117, N-(2-Ethyl-butoxy)-2-[(pyridin-4-ylmethyl)-amino]-benzamide] | 12.6 nM |
| CC(C)CCONC(=O)c1ccccc1NCc1ccncc1 [Compound 118, N-(3-Methyl-butoxy)-2-[(pyridin-4-ylmethyl)-amino]-benzamide] | 15.8 nM |
| O=C(NOCC1CCCCC1)c1ccccc1NCc1ccncc1 [Compound 120, N-Cyclohexylmethoxy-2-[(pyridin-4-ylmethyl)-amino]-benzamide] | 39.8 nM |
| O=C(NOCC1CCCCCC1)c1ccccc1NCc1ccncc1 [Compound 121, N-Cycloheptylmethoxy-2-[(pyridin-4-ylmethyl)-amino]-benzamide] | 50.1 nM |
| O=C(NOCC1CCCCCCC1)c1ccccc1NCc1ccncc1 [Compound 122, N-Cyclooctylmethoxy-2-[(pyridin-4-ylmethyl)-amino]-benzamide] | 7.94 nM |
| CC(ONC(=O)c1ccccc1NCc1ccncc1)C1CCCC1 (stereo not shown) [Compound 123, N-(1-Cyclopentyl-ethoxy)-2-[(pyridin-4-ylmethyl)-amino]-benzamide] | 31.6 nM |
| O=C(NOC1CCCCC1)c1ccccc1NCc1ccncc1 [Compound 124, N-Cyclohexyloxy-2-[(pyridin-4-ylmethyl)-amino]-benzamide] | 63.1 nM |
| O=C(NOCCC1CCCC1)c1ccccc1NCc1ccncc1 [Compound 126, N-(2-Cyclopentyl-ethoxy)-2-[(pyridin-4-ylmethyl)-amino]-benzamide] | 7.94 nM |
| O=C(NOCCCC1CCCC1)c1ccccc1NCc1ccncc1 [Compound 127, N-(3-Cyclopentyl-propoxy)-2-[(pyridin-4-ylmethyl)-amino]-benzamide] | 15.8 nM |
| O=C(NOC[C@H]1CC[C@H](CO)CC1)c1ccccc1NCc1ccncc1 [Compound 130, N-(trans-4-Hydroxymethyl-cyclohexylmethoxy)-2-[(pyridin-4-ylmethyl)-amino]-benzamide] | 50.1 nM |
| O=C(NOCC12CC3CC(CC(C3)C1)C2)c1ccccc1NCc1ccncc1 [Compound 132, N-(Adamantan-1-ylmethoxy)-2-[(pyridin-4-ylmethyl)-amino]-benzamide] | 100 nM |
| CC1(C)[C@H]2CC[C@@H](CONC(=O)c3ccccc3NCc3ccncc3)[C@@H]1C2 [Compound 134] | 25.1 nM |
| O=C(NOCC1CCOCC1)c1ccccc1NCc1ccncc1 [Compound 141, 2-[(Pyridin-4-ylmethyl)-amino]-N-(tetrahydro-pyran-4-ylmethoxy)-benzamide] | 50.1 nM |
| O=C(NOCC1CCCCO1)c1ccccc1NCc1ccncc1 (stereo not shown) [Compound 142, 2-[(Pyridin-4-ylmethyl)-amino]-N-(tetrahydro-pyran-2-ylmethoxy)-benzamide] | 39.8 nM |
| Cc1nc(CONC(=O)c2ccc(F)cc2NCc2ccncc2)cs1 [Compound 143, 4-Fluoro-N-(2-methyl-thiazol-4-ylmethoxy)-2-[(pyridin-4-ylmethyl)amino]-benzamide] | 100 nM |
| N#Cc1ccc(CONC(=O)c2cccnc2NCc2ccncc2)cc1 [Compound 156, N-(4-Cyano-benzyloxy)-2-[(pyridin-4-ylmethyl)-amino]-nicotinamide] | 63.1 nM |
| N#Cc1ccc(CONC(=O)c2cccnc2NCc2ccncc2)c(Cl)c1 [Compound 157, N-(2-Chloro-4-cyano-benzyloxy)-2-[(pyridin-4-ylmethyl)-amino]-nicotinamide] | 50.1 nM |
| N#Cc1ccc(CONC(=O)c2cccnc2NCc2ccncc2)c(F)c1 [Compound 158, N-(4-Cyano-2-fluoro-benzyloxy)-2-[(pyridin-4-ylmethyl)-amino]-nicotinamide] | 79.4 nM |
| COc1cc(C#N)ccc1CONC(=O)c1cccnc1NCc1ccncc1 [Compound 162, N-(4-Cyano-2-methoxy-benzyloxy)-2-[(pyridin-4-ylmethyl)-amino]-nicotinamide] | 63.1 nM |
| O=C(NOCC1CCCC1)c1cccnc1NCc1ccncc1 [Compound 164, N-Cyclopentylmethoxy-2-[(pyridin-4-ylmethyl)-amino]-nicotinamide] | 7.94 nM |
| O=C(NCCCO)c1cc(CNc2ccccc2C(=O)NOCC2CCCC2)ccc1F [Compound 188, 5-[(2-Cyclopentylmethoxycarbamoyl-phenylamino)-methyl]-2-fluoro-N-(3-hydroxypropyl)-benzamide] | 79.4 nM |
| O=C(NOCc1ccc(F)cc1)c1ccccc1NCc1ccc2c(c1)CCO2 [Compound 195, 2-[(2,3-Dihydro-benzofuran-5-ylmethyl)-amino]-N-(4-fluoro-benzyloxy)-benzamide] | 79.4 nM |
| N#Cc1ccc(CONC(=O)c2ccccc2NCc2ccc3c(c2)CCO3)cc1 [Compound 196, N-(4-Cyano-benzyloxy)-2-[(2,3-dihydro-benzofuran-5-ylmethyl)-amino]-benzamide] | 79.4 nM |

Second part, the compound after the results:

| IC50 | SMILES |
| --- | --- |
| 63.1 nM | O=C(NOCc1cccc2ccccc12)c1ccccc1NCc1ccncc1 [Compound 100, N-(Naphthalen-1-ylmethoxy)-2-[(pyridin-4-ylmethyl)-amino]-benzamide] |
| 63.1 nM | O=C(NOCc1cc(Cl)nc(Cl)c1)c1ccccc1NCc1ccncc1 [Compound 104, N-(2,6-Dichloro-pyridin-4-ylmethoxy)-2-[(pyridin-4-ylmethyl)-amino]-benzamide] |
| 50.1 nM | O=C(NOCc1cnc(Cl)s1)c1ccccc1NCc1ccncc1 [Compound 106, N-(2-Chloro-thiazol-5-ylmethoxy)-2-[(pyridin-4-ylmethyl)-amino]-benzamide] |
| 100 nM | O=C(NOCc1csc(-c2ccccc2)n1)c1ccccc1NCc1ccncc1 [Compound 107, N-(2-Phenyl-thiazol-4-ylmethoxy)-2-[(pyridin-4-ylmethyl)-amino]-benzamide] |
| 79.4 nM | CCCc1cc(CONC(=O)c2ccccc2NCc2ccncc2)on1 [Compound 110, N-(3-Propyl-isoxazol-5-ylmethoxy)-2-[(pyridin-4-ylmethyl)-amino]-benzamide] |
| 79.4 nM | O=C(NOCc1ccc(Cl)s1)c1ccccc1NCc1ccncc1 [Compound 111, N-(5-Chloro-thiophen-2-ylmethoxy)-2-[(pyridin-4-ylmethyl)-amino]-benzamide] |
| 100 nM | O=C(NOCC1CC1)c1ccccc1NCc1ccncc1 [Compound 114, N-Cyclopropylmethoxy-2-[(pyridin-4-ylmethyl)-amino]-benzamide] |
| 39.8 nM | CC(C)(C)CONC(=O)c1ccccc1NCc1ccncc1 [Compound 116, N-(2,2-Dimethyl-propoxy)-2-[(pyridin-4-ylmethyl)-amino]-benzamide] |
| 15.8 nM | O=C(NOCC1CCC1)c1ccccc1NCc1ccncc1 [Compound 119, N-Cyclobutylmethoxy-2-[(pyridin-4-ylmethyl)-amino]-benzamide] |
| 39.8 nM | O=C(NOCCC1CC1)c1ccccc1NCc1ccncc1 [Compound 125, N-(2-Cyclopropyl-ethoxy)-2-[(pyridin-4-ylmethyl)-amino]-benzamide] |
| 15.8 nM | O=C(NOCC1CC=CCC1)c1ccccc1NCc1ccncc1 (stereo not shown) [Compound 128, N-(Cyclohex-3-enylmethoxy)-2-[(pyridin-4-ylmethyl)-amino]-benzamide] |
| 10 nM | CC1CC=CCC1CONC(=O)c1ccccc1NCc1ccncc1 (stereo not shown) [Compound 129, N-(6-Methyl-cyclohex-3-enylmethoxy)-2-[(pyridin-4-ylmethyl)-amino]-benzamide] |
| 79.4 nM | O=C(NOCC1CCCO1)c1ccccc1NCc1ccncc1 (stereo not shown) [Compound 135, 2-[(Pyridin-4-ylmethyl)-amino]-N-(tetrahydro-furan-2-ylmethoxy)-benzamide] |
| 63.1 nM | O=C(NOCc1ccccc1I)c1cccnc1NCc1ccncc1 [Compound 160, N-(2-Iodo-benzyloxy)-2-[(pyridin-4-ylmethyl)-amino]-nicotinamide] |
| 63.1 nM | O=C(NOCc1ccccc1Br)c1cccnc1NCc1ccncc1 [Compound 161, N-(2-Bromo-benzyloxy)-2-[(pyridin-4-ylmethyl)-amino]-nicotinamide] |
| 63.1 nM | O=C(NOCc1ccccc1)c1ccccc1NCc1ccc2occc2c1 [Compound 198, 2-[(Benzofuran-5-ylmethyl)-amino]-N-benzyloxy-benzamide] |
